Patent publication US5488060A, “Substituted thiadiazoles, compositions containing them and their use as antimicrobial and marine antifouling agents” (The Dow Chemical Company, priority 1994, dated 1996)
Values after ≈ are worked out from the molar mass of the structure shown. Read-outs that look alike come from different tables or passages of the source.

Legend:
Assay type in all cases: cell-based
Fusarium oxysporum (Fo) = test: Minimum inhibitory concentration (MIC) in malt yeast agar, Fusarium oxysporum
Protocol: (§1) The antimicrobial activity of the compounds of the present invention is set forth as the minimum inhibitory concentration (MIC) for the active compounds and is determined for nine (9) bacteria, using nutrient agar, and seven (7) yeast and fungi, using malt yeast agar. This determination is conducted using a one percent solution of the test compound prepared in a mixture of acetone and water.
(§2) Malt yeast agar is prepared at pH 5.5 by adding 3 g yeast extract and 45 g malt agar per liter of deionized water. The specific agar is dispensed in 30 mL aliquots into 25×200 mm test tubes, capped and autoclaved for 15 minutes at 115° C.
(§3) The test tubes containing the agar are cooled in a water bath until the temperature of the agar is 48° C. Then, an appropriate amount of the one percent solution of the test compound is added (except in the controls where no compound is added) to the respective test tubes so that the final concentrations are 500, […], 100, 50, 25, 10, 5, 2.5, 1.0 and zero parts per million of the test compound in the agar, thus having a known concentration of test compound dispersed therein. The contents of the test tubes are then transferred to respective petri plates. After drying for 24 hours, the petri plates containing nutrient agar are inoculated with bacteria and those containing malt yeast agar are inoculated with yeast and fungi.
(§4) The inoculation with the yeast and fungi is accomplished as follows. Cultures of yeast and fungi are incubated for seven days on malt yeast agar at 30° C. These cultures are used to prepare suspensions by the following procedure. A suspension of each organism is prepared by adding 10 mL of sterile saline and 10 microliters of octylphenoxy polyethoxy ethanol to the agar slant of yeast or fungi. The sterile saline/octylphenoxy potyethoxy ethanol solution is then agitated with a sterile swab to suspend the microorganism grown on the slant. Each resulting suspension is diluted into sterile saline (1 part suspension: 9 parts sterile saline). Aliquots of these dilutions are placed in individual wells of Steer's Replicator and petri plates inoculated as previously described. The petri plates are incubated at 30° C. and read after 48 hours for yeast and 72 hours for fungi.

[1] = system: Klebsiella pneumoniae (Kp); test: Minimum inhibitory concentration (MIC) in nutrient agar, Klebsiella pneumoniae
Protocol: as §1
(§5) Nutrient agar is prepared at pH 6.8, representing a neutral medium, and at pH 8.2, representing an alkaline medium. The nutrient agars are prepared by adding 23 g of nutrient agar to one-liter of deionized water. In addition, the alkaline medium is prepared by adjusting a 0.04M solution of N-[tris-(hydroxymethyl)methyl]glycine buffered deionized water with concentrated sodium hydroxide to a pH of 8.5.
as §3
(§6) The inoculation with bacteria is accomplished by using the following procedure. Twenty-four hour-cultures of each of the bacteria are prepared by incubating the respective bacteria in tubes containing nutrient broth for 24 hours at 30° C. in a shaker. Dilutions of each of the 24 hour-cultures are made so that nine separate suspensions (one for each of the nine test bacteria) are made, each containing 10^8 colony forming units (CFU) per mL of suspension of a particular bacteria. Aliquots of 0.3 mL of each of the bacterial suspensions are used to fill the individual wells of Steer's Replicator. For each microbial suspension, 0.3 mL was used to fill three wells (i.e., three wells of 0.3 mL each) so that for the nine different bacteria, 27 wells are filled. The Steer's Replicator is then used to inoculate both the neutral and alkaline pH nutrient agar petri plates.
(§7) The inoculated petri plates are incubated at 30° C. for 48 hours and then read to determine if the test compound which is incorporated into the agar prevented growth of the respective bacteria.

[2] = system: Saccharomyces cerevisiae (Sc); test: Minimum inhibitory concentration (MIC) in malt yeast agar, Saccharomyces cerevisiae
Protocol: as §1, §2, §3, §4

[3] = system: Enterobacter aerogenes (Ea); test: Minimum inhibitory concentration (MIC) in nutrient agar, Enterobacter aerogenes; conditions: Klebsiella aerogenes, 48 h
Protocol: as §1, §5, §3, §6, §7

[4] = system: Aureobasidium pullulan (Ap); test: Minimum inhibitory concentration (MIC) in malt yeast agar, Aureobasidium pullulan
Protocol: as §1, §2, §3, §4

Escherichia coli (Ec) = test: Minimum inhibitory concentration (MIC) in nutrient agar, Escherichia coli
Protocol: as §1, §5, §3, §6, §7

Candida albicans (Ca) = test: Minimum inhibitory concentration (MIC) in malt yeast agar, Candida albicans
Protocol: as §1, §2, §3, §4

[5] = system: Pseudomonas aeruginosa (Pa); test: Minimum inhibitory concentration (MIC) in nutrient agar, Pseudomonas aeruginosa; conditions: 30° C., 48 hours, read-out: Minimum Inhibitory Concentration, Pa
Protocol: as §1, §5, §3, §6, §7

Bacillus subtilis (Bs) = test: Minimum inhibitory concentration (MIC) in nutrient agar, Bacillus subtilis
Protocol: as §1, §5, §3, §6, §7

Trichoderma viride (Tv) = test: Minimum inhibitory concentration (MIC) in malt yeast agar, Trichoderma viride
Protocol: as §1, §2, §3, §4

[6] = system: Pseudomonas aeruginosa (PRD-10); test: Minimum inhibitory concentration (MIC) in nutrient agar, Pseudomonas aeruginosa PRD-10; conditions: 48 h
Protocol: as §1, §5, §3, §6, §7

[7] = system: Penicillium chrysogenum (Pc); test: Minimum inhibitory concentration (MIC) in malt yeast agar, Penicillium chrysogenum
Protocol: as §1, §2, §3, §4

[8] = system: Salmonella choleraesuis (Se); test: Minimum inhibitory concentration (MIC) in nutrient agar, Salmonella choleraesuis; conditions: Salmonella enterica
Protocol: as §1, §5, §3, §6, §7

Proteus vulgaris (Pv) = test: Minimum inhibitory concentration (MIC) in nutrient agar, Proteus vulgaris; conditions: 48 h
Protocol: as §1, §5, §3, §6, §7

[9] = system: Staphylococcus aureus (Sa); test: Minimum inhibitory concentration (MIC) in nutrient agar, Staphylococcus aureus
Protocol: as §1, §5, §3, §6, §7

Aspergillus niger (An) = test: Minimum inhibitory concentration (MIC) in malt yeast agar, Aspergillus niger
Protocol: as §1, §2, §3, §4

[10] = 72 h, pH 5.5, read-out: Minimum Inhibitory Concentration, Fo
[11] = 48 h, pH 8.2, read-out: Minimum Inhibitory Concentration, Kp
[12] = pH 6.8, nutrient agar, 30° C., 48 hours, read-out: Minimum Inhibitory Concentration, Kp
[13] = pH 6.8, read-out: Minimum Inhibitory Concentration, Ea
[14] = pH 8.2, read-out: Minimum Inhibitory Concentration, Ea
[15] = pH 5.5, malt yeast agar, 30° C., 48 hours for yeast, read-out: Minimum Inhibitory Concentration, Ca
[16] = 48 h, pH 8.2, read-out: Minimum Inhibitory Concentration, Bs
[17] = 72 h, pH 5.5, read-out: Minimum Inhibitory Concentration, Tv
[18] = pH 6.8, read-out: Minimum Inhibitory Concentration, PRD
[19] = pH 8.2, read-out: Minimum Inhibitory Concentration, PRD
[20] = 48 h, pH 8.2, read-out: Minimum Inhibitory Concentration, SC
[21] = pH 6.8, read-out: Minimum Inhibitory Concentration, Pv
[22] = pH 8.2, read-out: Minimum Inhibitory Concentration, Pv
[23] = 48 h, pH 8.2, read-out: Minimum Inhibitory Concentration, Sa
[24] = pH 6.8, nutrient agar, 30° C., 48 hours, read-out: Minimum Inhibitory Concentration, Sa
[25] = pH 5.5, malt yeast agar, 30° C., 48 hours for yeast, read-out: Minimum Inhibitory Concentration, SC
[26] = pH 5.5, malt yeast agar, 30° C., read-out: Minimum Inhibitory Concentration, Ap
[27] = 48 h, pH 6.8, read-out: Minimum Inhibitory Concentration, Ec
[28] = pH 8.2, nutrient agar, 30° C., 48 hours, read-out: Minimum Inhibitory Concentration, Ec
[29] = 48 h, pH 6.8, read-out: Minimum Inhibitory Concentration, Bs
[30] = pH 5.5, malt yeast agar, 30° C., 72 hours for fungi, read-out: Minimum Inhibitory Concentration, PC
[31] = 48 h, pH 6.8, read-out: Minimum Inhibitory Concentration, SC
[32] = pH 5.5, malt yeast agar, 30° C., 72 hours for fungi, read-out: Minimum Inhibitory Concentration, An

Row | SMILES | MIC (Fusarium oxysporum (Fo); [10]) [µg/mL] | MIC [1, 11] [µg/mL] | MIC [1, 12] [µg/mL] | MIC [3, 13] [µg/mL] | MIC [3, 14] [µg/mL] | MIC (Candida albicans (Ca); [15]) [µg/mL] | MIC ([5]; pH 6.8, nutrient agar) [µg/mL] | MIC ([5]; pH 8.2, nutrient agar) [µg/mL] | MIC (Bacillus subtilis (Bs); [16]) [µg/mL] | MIC (Trichoderma viride (Tv); [17]) [µg/mL] | MIC [6, 18] [µg/mL] | MIC [6, 19] [µg/mL] | MIC [8, 20] [µg/mL] | MIC (Proteus vulgaris (Pv); [21]) [µg/mL] | MIC (Proteus vulgaris (Pv); [22]) [µg/mL] | MIC [9, 23] [µg/mL] | MIC [9, 24] [µg/mL] | MIC [2, 25] [µg/mL] | MIC [4, 26] [µg/mL] | MIC (Escherichia coli (Ec); [27]) [µg/mL] | other results
1 | N#CSc1nsnc1-c1ccccc1Cl [Example IV, 4-(2-Chlorophenyl)-3-thiocyanatol-1,2,5-thiadiazole] | 5 (≈ 19.7 µM) | 500 (≈ 1970 µM) | > 500 | > 500 | 500 (≈ 1970 µM) | < 10 | > 500 | 500 (≈ 1970 µM) | 250 (≈ 985 µM) | 10 (≈ 39.4 µM) | > 500 | 500 (≈ 1970 µM) | 500 (≈ 1970 µM) | > 500 | 500 (≈ 1970 µM) | 500 (≈ 1970 µM) | 25 (≈ 98.5 µM) | – | – | – | MIC ([2]; 48 h, pH 5.5, read-out: Minimum Inhibitory Concentration, SC): 2.5 µg/mL (≈ 9.85 µM); MIC ([4]; pH 5.5, read-out: Minimum Inhibitory Concentration, Ap): 5 µg/mL (≈ 19.7 µM); MIC (Escherichia coli (Ec); 48 h, pH 8.2, read-out: Minimum Inhibitory Concentration, Ec): 500 µg/mL (≈ 1970 µM); MIC (Escherichia coli (Ec); pH 6.8, nutrient agar, 30° C., 48 hours, read-out: Minimum Inhibitory Concentration, Ec): 250 µg/mL (≈ 985 µM); MIC (Bacillus subtilis (Bs); pH 6.8, nutrient agar, 30° C., 48 hours, read-out: Minimum Inhibitory Concentration, Bs): < 10 µg/mL; MIC ([7]; 72 h, pH 5.5, read-out: Minimum Inhibitory Concentration, PC): 10 µg/mL (≈ 39.4 µM); MIC ([8]; pH 6.8, nutrient agar, 30° C., 48 hours, read-out: Minimum Inhibitory Concentration, SC): 100 µg/mL (≈ 394 µM); MIC (Aspergillus niger (An); 72 h, pH 5.5, read-out: Minimum Inhibitory Concentration, An): 25 µg/mL (≈ 98.5 µM)
2 | CSc1ccc(-c2nsnc2SCSC#N)cc1 [Example XXIV, 4-(4-Methylthiophenyl)-3-thiocyanatomethylthio-1,2,5-thiadiazole] | – | > 500 | 500 (≈ 1610 µM) | 500 (≈ 1610 µM) | > 500 | 500 (≈ 1610 µM) | 500 (≈ 1610 µM) | > 500 | 500 (≈ 1610 µM) | – | 500 (≈ 1610 µM) | > 500 | > 500 | 500 (≈ 1610 µM) | > 500 | > 500 | 500 (≈ 1610 µM) | 500 (≈ 1610 µM) | 500 (≈ 1610 µM) | 500 (≈ 1610 µM) | MIC (Fusarium oxysporum (Fo); pH 5.5, malt yeast agar, 30° C., 72 hours for fungi, read-out: Minimum Inhibitory Concentration, Fo): 500 µg/mL (≈ 1610 µM); MIC (Escherichia coli (Ec); [28]): 250 µg/mL (≈ 803 µM); MIC (Bacillus subtilis (Bs); [29]): 500 µg/mL (≈ 1610 µM); MIC (Trichoderma viride (Tv); pH 5.5, malt yeast agar, 30° C., 72 hours for fungi, read-out: Minimum Inhibitory Concentration, Tv): 500 µg/mL (≈ 1610 µM); MIC [7, 30]: 500 µg/mL (≈ 1610 µM); MIC [8, 31]: 500 µg/mL (≈ 1610 µM); MIC (Aspergillus niger (An); [32]): 500 µg/mL (≈ 1610 µM)
3 | N#CSCSc1nsnc1-c1ccc(Cl)cc1 [Example XVIII, 4-(4-Chlorophenyl)-3-thiocyanatomethylthio-1,2,5-thiadiazole] | 100 (≈ 334 µM) | > 500 | 500 (≈ 1670 µM) | 500 (≈ 1670 µM) | > 500 | – | 500 (≈ 1670 µM) | > 500 | 500 (≈ 1670 µM) | 250 (≈ 834 µM) | 500 (≈ 1670 µM) | > 500 | > 500 | 500 (≈ 1670 µM) | > 500 | > 500 | 500 (≈ 1670 µM) | 9 (≈ 30 µM) | 9 (≈ 30 µM) | 500 (≈ 1670 µM) | MIC (Escherichia coli (Ec); [28]): 250 µg/mL (≈ 834 µM); MIC (Candida albicans (Ca); 48 h, pH 5.5, read-out: Minimum Inhibitory Concentration, Ca): 250 µg/mL (≈ 834 µM); MIC (Bacillus subtilis (Bs); [29]): 500 µg/mL (≈ 1670 µM); MIC [7, 30]: 9 µg/mL (≈ 30 µM); MIC [8, 31]: 500 µg/mL (≈ 1670 µM); MIC (Aspergillus niger (An); [32]): 9 µg/mL (≈ 30 µM)
